According to patent US20260125375A1 (Pfizer Inc., priority 2022, published 2026):

How the values were obtained:
C-CBL (46-435) = target: T1, C-CBL (46-435) (Homo sapiens, UniProt P22681); test: Surface Plasmon Resonance (SPR) assay, binding affinity and kinetics, C-CBL; conditions: SPR at 10° C., biotinylated C-CBL (46-435) on streptavidin chip; geometric mean; read-out: C-CBL SPR Kd (nM) GMean
T1 construct: N-terminal biotinylated WT CBL-B (36-427) and C-CBL (46-435) were captured on a streptavidin (SA) coated sensor chip
T1 sequence (P22681 46-435): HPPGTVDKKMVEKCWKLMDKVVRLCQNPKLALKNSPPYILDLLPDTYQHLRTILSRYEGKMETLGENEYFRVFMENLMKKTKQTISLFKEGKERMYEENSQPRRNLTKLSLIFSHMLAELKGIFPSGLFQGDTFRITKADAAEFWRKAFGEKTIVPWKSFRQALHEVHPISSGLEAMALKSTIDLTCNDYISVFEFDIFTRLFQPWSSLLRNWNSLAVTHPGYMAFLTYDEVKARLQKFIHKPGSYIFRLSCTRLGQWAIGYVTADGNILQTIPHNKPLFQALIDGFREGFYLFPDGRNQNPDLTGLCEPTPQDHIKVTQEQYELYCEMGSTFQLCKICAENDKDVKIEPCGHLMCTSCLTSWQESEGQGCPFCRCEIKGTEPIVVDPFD
In short: (§1)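 SPR kinetics at 10° C, run either single-cycle (0.001–1 μM, 3-fold, 6 points, 120 s on, >5400 s off) or multi-cycle (10 points, 2-fold, top 10 or 100 μM, 90 s on). Proteins were N-biotinylated CBL-B (36-427) and C-CBL (46-435) on SA surfaces, in pH 7.2 HEPES, 2% DMSO.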

C-CBL (residues 46-435) = target: T2, C-CBL (residues 46-435) (Homo sapiens, UniProt P22681); test: Ligand Displacement Assay (LDA), HTRF competitive binding against BODIPY-labeled fluorescent tracer, C-CBL; conditions: geometric mean of the number of tests, read-out: C-CBL Ki (nM) GMean
T2 construct: Purified CBL-B (residues 36-427) and C-CBL (residues 46-435) proteins from baculovirus-infected insect cells; made in house; host or cells: baculovirus-infected insect cells
T2 sequence (P22681 46-435): T1 sequence (P22681 46-435)
In short: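 Terbium-streptavidin donor on BirA-biotinylated, AviTagged protein from baculovirus-infected insect cells; BODIPY tracer as acceptor. Compound titrations were three-fold and duplicated, […] with 2% DMSO final.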

WT CBL-B (36-427) = target: T3, WT CBL-B (36-427) (Homo sapiens, UniProt Q13191); test: Surface Plasmon Resonance (SPR) assay, binding affinity and kinetics, CBL-B; conditions: SPR at 10° C., biotinylated WT CBL-B (36-427) on streptavidin chip; geometric mean; read-out: CBL-B SPR Kd (nM) GMean
T3 construct: N-terminal biotinylated WT CBL-B (36-427) and C-CBL (46-435) were captured on a streptavidin (SA) coated sensor chip
In short: as §1

| Structure (SMILES) | Kd (C-CBL (46-435)) | Ki (C-CBL (residues 46-435)) | Kd (WT CBL-B (36-427)) |
| --- | --- | --- | --- |
| C[C@@H]1CCCN(Cc2nc(C(F)(F)F)cc3c(-c4cccc(C5(Cc6nncn6C)COC5)c4)n[nH]c23)C1 [Example C29, 7-{[(3R)-3-methylpiperidin-1-yl]methyl}-3-(3-{3-[(4-methyl-4H-1,2,4-triazol-3-yl)methyl]oxetan-3-yl}phenyl)-5-(trifluoromethyl)-1H-pyrazolo[3,4-c]pyridine] | 195 nM | 46.3 nM | 3.8 nM |
| CC(c1nc(C(F)(F)F)cc2c(-c3cccc(C4(Cc5nncn5C)COC4)c3)n[nH]c12)N1CCOCC1 (single isomer, unassigned) [Example C23, 3-(3-{3-[(4-methyl-4H-1,2,4-triazol-3-yl)methyl]oxetan-3-yl}phenyl)-7-[(1ξ)-1-(morpholin-4-yl)ethyl]-5-(trifluoromethyl)-1H-pyrazolo[3,4-c]pyridine] | 29.4 nM | 24.8 nM | 5.1 nM |
| Cn1cnnc1[C@@H](c1cccc(-c2n[nH]c3c(CN[C@H]4CCC(F)(F)C4)nc(C(F)(F)F)cc23)c1)C1CCC1 (single isomer, unassigned) [Example G1] | 60.8 nM | 118 nM | 8 nM |
| C[C@H](N[C@@H]1CCOC1)c1nc(C(F)(F)F)cc2c(-c3cccc([C@H](c4nncn4C)C4CCC4)c3)n[nH]c12 (single isomer, unassigned) [Example D2] | 108 nM | 77.1 nM | 3.8 nM |
| C[C@H](N[C@H]1CCC(F)(F)C1)c1nc(C(F)(F)F)cc2c(-c3cccc([C@H](c4nncn4C)C4CCC4)c3)n[nH]c12 [Example C8] | 5 nM | 3 nM | 2.2 nM |
| CC(C)NC(C)c1nc(C(F)(F)F)cc2c(-c3cccc([C@H](c4nncn4C)C4CCC4)c3)n[nH]c12 (single isomer, unassigned) [Example C35] | 54 nM | 29.1 nM | 2.8 nM |
| C[C@@H](NC1CCCC1)c1nc(C(F)(F)F)cc2c(-c3cccc(C4(Cc5nncn5C)COC4)c3)n[nH]c12 (single isomer, unassigned) [Example C15] | 33.9 nM | 42.1 nM | 5.6 nM |
| CCNC(C)c1nc(C(F)(F)F)cc2c(-c3cccc([C@H](c4nncn4C)C4CCC4)c3)n[nH]c12 (single isomer, unassigned) [Example C89] | 125 nM | 105 nM | 4.1 nM |
| C[C@@H](N[C@H]1CCOC1)c1nc(C(F)(F)F)cc2c(-c3cccc([C@H](c4nncn4C)C4CCC4)c3)n[nH]c12 (single isomer, unassigned) [Example C3] | 80.7 nM | 52.1 nM | 5.6 nM |
| C[C@@H](N[C@H]1C[C@H](O)C1)c1nc(C(F)(F)F)cc2c(-c3cccc([C@H](c4nncn4C)C4CCC4)c3)n[nH]c12 (single isomer, unassigned) [Example C92] | 39.5 nM | 50 nM | 2.7 nM |
| Cn1cnnc1[C@@H](c1cccc(-c2n[nH]c3c(CNC4CCCC4)nc(C(F)(F)F)cc23)c1)C1CCC1 [Example D4] | 106 nM | 54.8 nM | 2.8 nM |
| C[C@@H]1CCCN([C@@H](C)c2nc(C(F)(F)F)cc3c(-c4cccc(C5(Cc6nncn6C)COC5)c4)n[nH]c23)C1 (single isomer, unassigned) [Example D13] | 51.2 nM | 53.6 nM | 3.5 nM |
| C[C@@H](c1nc(C(F)(F)F)cc2c(-c3cccc(C4(Cc5nncn5C)COC4)c3)n[nH]c12)N1CC[C@@H](F)C1 (single isomer, unassigned) [Example D9] | 96 nM | 71.8 nM | 8.3 nM |
| CC(c1nc(C(F)(F)F)cc2c(-c3cccc(C4(Cc5nncn5C)COC4)c3)n[nH]c12)N1C[C@@H](F)[C@H](F)C1 (single isomer, unassigned) [Example C25] | 31.8 nM | 33.1 nM | 1.8 nM |
| C[C@H](N[C@@H]1CC[C@@H]1O)c1nc(C(F)(F)F)cc2c(-c3cccc([C@H](c4nncn4C)C4CCC4)c3)n[nH]c12 (single isomer, unassigned) [Example D28] | 2.2 nM | 0.6 nM | 0.4 nM |
| C[C@@H](c1nc(C(F)(F)F)cc2c(-c3cccc(C4(Cc5nncn5C)COC4)c3)n[nH]c12)N1C[C@H](F)[C@@H](F)C1 (single isomer, unassigned) [Example D7] | 36 nM | 28.1 nM | 2.3 nM |
| C[C@@H](N[C@H]1C[C@@H](O)C1)c1nc(C(F)(F)F)cc2c(-c3cccc([C@H](c4nncn4C)C4CCC4)c3)n[nH]c12 (single isomer, unassigned) [Example C37] | 75.5 nM | 50.6 nM | 3.3 nM |
| CC(NC1CCCC1)c1nc(C(F)(F)F)cc2c(-c3cccc([C@H](c4nncn4C)C4CCC4)c3)n[nH]c12 (stereo partly drawn) [Example C14, N-{(1ξ)-1-[3-{3-[(R)-cyclobutyl(4-methyl-4H-1,2,4-triazol-3-yl)methyl]phenyl}-5-(trifluoromethyl)-1H-pyrazolo[3,4-c]cyclopen-7-yl]ethyl}cyclopentanamine] | 4.1 nM | 2.3 nM | 1.4 nM |
| C[C@H]1CN(Cc2nc(C(F)(F)F)cc3c(-c4cccc([C@H](c5nncn5C)C5CCC5)c4)n[nH]c23)CCO1 [Example C6, 3-{3-[(R)-cyclobutyl(4-methyl-4H-1,2,4-triazol-3-yl)methyl]phenyl}-7-{[(2S)-2-methylmorpholin-4-yl]methyl}-5-(trifluoromethyl)-1H-pyrazolo[3,4-c]pyridine] | 102 nM | 256 nM | 4.4 nM |
| C[C@H](N[C@H]1CCOC1)c1nc(C(F)(F)F)cc2c(-c3cccc([C@H](c4nncn4C)C4CCC4)c3)n[nH]c12 (single isomer, unassigned) [Example C2] | 38.8 nM | 55.6 nM | 2.5 nM |
| C[C@H](N[C@H]1C[C@@H](F)C1)c1nc(C(F)(F)F)cc2c(-c3cccc([C@H](c4nncn4C)C4CCC4)c3)n[nH]c12 (single isomer, unassigned) [Example C95] | 72.5 nM | 28 nM | 2.3 nM |
| C[C@H](NC1CCC1)c1nc(C(F)(F)F)cc2c(-c3cccc(C4(Cc5nncn5C)COC4)c3)n[nH]c12 [Example F1, N-{(1S)-1-[3-(3-{3-[(4-methyl-4H-1,2,4-triazol-3-yl)methyl]oxetan-3-yl}phenyl)-5-(trifluoromethyl)-1H-pyrazolo[3,4-c]pyridin-7-yl]ethyl}cyclobutanamine] | 11.2 nM | 7.3 nM | 0.7 nM |
| C[C@@H](N[C@@H]1CCC(F)(F)C1)c1nc(C(F)(F)F)cc2c(-c3cccc(C4(Cc5nncn5C)COC4)c3)n[nH]c12 (single isomer, unassigned) [Example C18] | 6.2 nM | 15.1 nM | 0.7 nM |
| C[C@@H](c1nc(C(F)(F)F)cc2c(-c3cccc(C4(Cc5nncn5C)COC4)c3)n[nH]c12)N1CCC(F)(F)C1 (single isomer, unassigned) [Example D5] | 209 nM | 148 nM | 21.9 nM |
| C[C@H](N[C@H]1C[C@@H](O)C1)c1nc(C(F)(F)F)cc2c(-c3cccc([C@H](c4nncn4C)C4CCC4)c3)n[nH]c12 (single isomer, unassigned) [Example C36] | 17.9 nM | 16.8 nM | 2 nM |
| CC(c1nc(C(F)(F)F)cc2c(-c3cccc(C4(Cc5nncn5C)COC4)c3)n[nH]c12)N1CCOCC1 (single isomer, unassigned) [Example C24, 3-(3-{3-[(4-methyl-4H-1,2,4-triazol-3-yl)methyl]oxetan-3-yl}phenyl)-7-[(1ξ)-1-(morpholin-4-yl)ethyl]-5-(trifluoromethyl)-1H-pyrazolo[3,4-c]pyridine] | 146 nM | 134 nM | 16.9 nM |
| C[C@H]1CN([C@@H](C)c2nc(C(F)(F)F)cc3c(-c4cccc(C5(Cc6nncn6C)COC5)c4)n[nH]c23)CCO1 (single isomer, unassigned) [Example D11] | 47.9 nM | 27.2 nM | 4.2 nM |
| C[C@H](O)CN[C@@H](C)c1nc(C(F)(F)F)cc2c(-c3cccc([C@H](c4nncn4C)C4CCC4)c3)n[nH]c12 (single isomer, unassigned) [Example D19] | 17.2 nM | 12.4 nM | 1.6 nM |
